In the NIST ThermoML archive (doi:10.1021/acs.jced.5b00838):
Numbers after ± are expanded uncertainties.

Test: excess molar enthalpy (molar enthalpy of mixing); xn = mol fraction of the nth substance listed
Conditions: 100 kPa, Liquid, isothermal titration calorimetry

CCCCCCOCC [1-ethoxyhexane] + CC#N
Conditions	excess molar enthalpy [kJ/mol]
298.15 K, x2 = 0.0307	0.117 ± 0.0022
298.15 K, x2 = 0.0596	0.254 ± 0.0037
298.15 K, x2 = 0.0868	0.371 ± 0.0051
298.15 K, x2 = 0.1125	0.469 ± 0.0062
298.15 K, x2 = 0.1368	0.554 ± 0.0073
298.15 K, x2 = 0.1816	0.694 ± 0.0089
298.15 K, x2 = 0.222	0.802 ± 0.01
298.15 K, x2 = 0.2586	0.887 ± 0.011
298.15 K, x2 = 0.2919	0.955 ± 0.012
298.15 K, x2 = 0.3223	1.01 ± 0.013
298.15 K, x2 = 0.3759	1.09 ± 0.014
298.15 K, x2 = 0.4217	1.13 ± 0.014
298.15 K, x2 = 0.4612	1.16 ± 0.015
298.15 K, x2 = 0.5038	1.18 ± 0.015
298.15 K, x2 = 0.5401	1.18 ± 0.015
298.15 K, x2 = 0.5715	1.18 ± 0.015
298.15 K, x2 = 0.5988	1.17 ± 0.015
298.15 K, x2 = 0.6274	1.15 ± 0.015
298.15 K, x2 = 0.6521	1.13 ± 0.014
298.15 K, x2 = 0.6738	1.11 ± 0.014
298.15 K, x2 = 0.6959	1.08 ± 0.014
298.15 K, x2 = 0.7006	1.07 ± 0.013
298.15 K, x2 = 0.7152	1.05 ± 0.013
298.15 K, x2 = 0.7222	1.03 ± 0.013
298.15 K, x2 = 0.7322	1.02 ± 0.013
298.15 K, x2 = 0.7452	0.994 ± 0.013
298.15 K, x2 = 0.7473	0.998 ± 0.013
298.15 K, x2 = 0.7608	0.973 ± 0.012
298.15 K, x2 = 0.7698	0.946 ± 0.012
298.15 K, x2 = 0.796	0.887 ± 0.011
298.15 K, x2 = 0.8241	0.813 ± 0.01
298.15 K, x2 = 0.8419	0.76 ± 0.0098
298.15 K, x2 = 0.8604	0.7 ± 0.009
298.15 K, x2 = 0.8799	0.63 ± 0.0082
298.15 K, x2 = 0.9002	0.548 ± 0.0072
298.15 K, x2 = 0.9215	0.453 ± 0.0061
298.15 K, x2 = 0.9362	0.381 ± 0.0052
298.15 K, x2 = 0.9514	0.3 ± 0.0043
298.15 K, x2 = 0.967	0.211 ± 0.0033
298.15 K, x2 = 0.9832	0.111 ± 0.0022
308.15 K, x2 = 0.0303	0.139 ± 0.0024
308.15 K, x2 = 0.0588	0.281 ± 0.004
308.15 K, x2 = 0.0857	0.401 ± 0.0054
308.15 K, x2 = 0.1111	0.504 ± 0.0067
308.15 K, x2 = 0.1352	0.594 ± 0.0077
308.15 K, x2 = 0.1795	0.741 ± 0.0095
308.15 K, x2 = 0.2196	0.855 ± 0.011
308.15 K, x2 = 0.2559	0.944 ± 0.012
308.15 K, x2 = 0.2889	1.01 ± 0.013
308.15 K, x2 = 0.3192	1.07 ± 0.014
308.15 K, x2 = 0.3726	1.15 ± 0.015
308.15 K, x2 = 0.4182	1.2 ± 0.015
308.15 K, x2 = 0.4577	1.23 ± 0.015
308.15 K, x2 = 0.5002	1.25 ± 0.016
308.15 K, x2 = 0.5366	1.25 ± 0.016
308.15 K, x2 = 0.568	1.24 ± 0.016
308.15 K, x2 = 0.5954	1.23 ± 0.016
308.15 K, x2 = 0.6241	1.21 ± 0.015
308.15 K, x2 = 0.6489	1.19 ± 0.015
308.15 K, x2 = 0.6707	1.17 ± 0.015
308.15 K, x2 = 0.6929	1.14 ± 0.014
308.15 K, x2 = 0.7087	1.11 ± 0.014
308.15 K, x2 = 0.7123	1.11 ± 0.014
308.15 K, x2 = 0.7294	1.08 ± 0.014
308.15 K, x2 = 0.73	1.07 ± 0.014
308.15 K, x2 = 0.7446	1.05 ± 0.013
308.15 K, x2 = 0.7526	1.03 ± 0.013
308.15 K, x2 = 0.7582	1.02 ± 0.013
308.15 K, x2 = 0.7767	0.974 ± 0.012
308.15 K, x2 = 0.8023	0.909 ± 0.012
308.15 K, x2 = 0.8297	0.83 ± 0.011
308.15 K, x2 = 0.847	0.774 ± 0.0099
308.15 K, x2 = 0.8651	0.709 ± 0.0092
308.15 K, x2 = 0.884	0.635 ± 0.0083
308.15 K, x2 = 0.9037	0.551 ± 0.0072
308.15 K, x2 = 0.9243	0.453 ± 0.0061
308.15 K, x2 = 0.9385	0.38 ± 0.0052
308.15 K, x2 = 0.9531	0.3 ± 0.0043
308.15 K, x2 = 0.9683	0.21 ± 0.0033
308.15 K, x2 = 0.9839	0.11 ± 0.0022
